According to ChEMBL document CHEMBL5291721, “A preclinical secondary pharmacology resource illuminates target-adverse drug reaction associations of marketed drugs” (Nat Commun, 2023):

What was measured:
[1] = target: T1, Muscarinic acetylcholine receptor M2 (Homo sapiens, UniProt P08172)
T1 sequence (P08172 whole entry): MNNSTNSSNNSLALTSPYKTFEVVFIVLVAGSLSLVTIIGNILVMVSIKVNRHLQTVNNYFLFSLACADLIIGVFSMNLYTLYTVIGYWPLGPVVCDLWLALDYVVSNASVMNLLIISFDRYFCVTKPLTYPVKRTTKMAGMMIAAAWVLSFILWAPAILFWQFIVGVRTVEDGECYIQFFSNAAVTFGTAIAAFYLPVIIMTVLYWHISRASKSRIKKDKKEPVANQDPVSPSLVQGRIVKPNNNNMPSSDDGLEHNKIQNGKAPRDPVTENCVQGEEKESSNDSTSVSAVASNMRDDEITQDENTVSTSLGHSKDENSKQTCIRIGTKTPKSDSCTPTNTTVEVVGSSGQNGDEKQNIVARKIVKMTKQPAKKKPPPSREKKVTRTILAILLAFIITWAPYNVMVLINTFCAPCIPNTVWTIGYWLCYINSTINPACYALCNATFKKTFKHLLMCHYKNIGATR

[2] = target: T2, Prostaglandin G/H synthase 1 (Homo sapiens, UniProt P23219); format: functional
T2 sequence (P23219 whole entry): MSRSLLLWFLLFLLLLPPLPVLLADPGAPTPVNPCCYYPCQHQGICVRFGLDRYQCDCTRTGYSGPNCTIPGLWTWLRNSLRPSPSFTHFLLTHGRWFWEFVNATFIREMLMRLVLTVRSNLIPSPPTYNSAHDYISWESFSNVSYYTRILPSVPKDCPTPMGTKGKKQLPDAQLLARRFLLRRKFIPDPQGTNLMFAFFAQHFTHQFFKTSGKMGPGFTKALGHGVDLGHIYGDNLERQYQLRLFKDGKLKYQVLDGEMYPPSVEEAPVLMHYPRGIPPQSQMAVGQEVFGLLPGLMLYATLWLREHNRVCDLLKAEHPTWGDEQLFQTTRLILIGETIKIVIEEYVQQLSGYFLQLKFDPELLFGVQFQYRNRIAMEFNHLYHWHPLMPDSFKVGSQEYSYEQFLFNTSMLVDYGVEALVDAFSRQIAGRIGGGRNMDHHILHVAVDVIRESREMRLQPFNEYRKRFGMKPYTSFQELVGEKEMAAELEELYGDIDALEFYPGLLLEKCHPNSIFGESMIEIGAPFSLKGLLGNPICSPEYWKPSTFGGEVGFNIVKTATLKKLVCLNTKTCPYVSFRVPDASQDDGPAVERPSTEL

[3] = target: Sodium-dependent dopamine transporter (Homo sapiens, UniProt Q01959)
Sodium-dependent dopamine transporter, sequence (Q01959 whole entry): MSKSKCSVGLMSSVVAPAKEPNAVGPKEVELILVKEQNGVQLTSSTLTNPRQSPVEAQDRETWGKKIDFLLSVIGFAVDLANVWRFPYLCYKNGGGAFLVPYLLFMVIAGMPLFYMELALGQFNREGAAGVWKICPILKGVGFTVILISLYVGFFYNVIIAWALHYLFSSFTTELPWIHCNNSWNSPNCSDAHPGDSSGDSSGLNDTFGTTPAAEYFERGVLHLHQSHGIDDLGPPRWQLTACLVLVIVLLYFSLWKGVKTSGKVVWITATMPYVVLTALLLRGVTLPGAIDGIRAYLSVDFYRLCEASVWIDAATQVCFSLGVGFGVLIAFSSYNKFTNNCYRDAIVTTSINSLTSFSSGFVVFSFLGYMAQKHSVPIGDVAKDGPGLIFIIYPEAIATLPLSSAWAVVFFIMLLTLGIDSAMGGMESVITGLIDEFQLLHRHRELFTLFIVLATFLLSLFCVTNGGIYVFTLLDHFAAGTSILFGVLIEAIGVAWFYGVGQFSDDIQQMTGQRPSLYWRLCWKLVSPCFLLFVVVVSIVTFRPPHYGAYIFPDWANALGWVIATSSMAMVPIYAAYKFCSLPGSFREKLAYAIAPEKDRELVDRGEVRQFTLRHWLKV

Acetylcholinesterase = Acetylcholinesterase (Homo sapiens, UniProt P22303); format: functional
Acetylcholinesterase, sequence (P22303 whole entry): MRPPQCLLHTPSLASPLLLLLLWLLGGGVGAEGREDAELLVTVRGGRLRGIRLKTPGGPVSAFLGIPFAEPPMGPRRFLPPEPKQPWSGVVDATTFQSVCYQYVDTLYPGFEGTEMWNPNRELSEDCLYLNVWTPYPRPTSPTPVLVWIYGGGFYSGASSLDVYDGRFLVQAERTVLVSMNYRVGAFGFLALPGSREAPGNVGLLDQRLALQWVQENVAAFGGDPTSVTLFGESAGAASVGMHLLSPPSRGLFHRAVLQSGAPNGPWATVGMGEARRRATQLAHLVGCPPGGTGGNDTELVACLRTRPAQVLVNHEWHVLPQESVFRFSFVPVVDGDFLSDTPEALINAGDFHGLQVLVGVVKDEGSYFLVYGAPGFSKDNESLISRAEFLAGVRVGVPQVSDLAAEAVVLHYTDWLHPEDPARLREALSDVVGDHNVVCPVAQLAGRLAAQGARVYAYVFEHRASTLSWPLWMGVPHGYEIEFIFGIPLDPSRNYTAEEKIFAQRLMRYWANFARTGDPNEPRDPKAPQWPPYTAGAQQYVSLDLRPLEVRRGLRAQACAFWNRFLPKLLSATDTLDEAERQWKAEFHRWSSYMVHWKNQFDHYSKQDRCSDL

Adenosine receptor A3 = target: T3, Adenosine receptor A3 (Homo sapiens, UniProt P0DMS8)
T3 sequence (P0DMS8 whole entry): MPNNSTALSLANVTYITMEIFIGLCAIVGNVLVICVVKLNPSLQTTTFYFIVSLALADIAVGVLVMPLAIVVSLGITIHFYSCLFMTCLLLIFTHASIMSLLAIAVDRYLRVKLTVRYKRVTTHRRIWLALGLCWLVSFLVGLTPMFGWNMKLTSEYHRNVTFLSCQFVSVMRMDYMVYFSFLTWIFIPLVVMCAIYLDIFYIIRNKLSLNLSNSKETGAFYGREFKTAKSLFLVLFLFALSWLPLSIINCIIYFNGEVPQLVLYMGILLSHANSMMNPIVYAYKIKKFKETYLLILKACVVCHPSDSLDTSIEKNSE

Thromboxane A2 receptor = target: T4, Thromboxane A2 receptor (Homo sapiens, UniProt P21731); format: functional, cell-based
T4 sequence (P21731 whole entry): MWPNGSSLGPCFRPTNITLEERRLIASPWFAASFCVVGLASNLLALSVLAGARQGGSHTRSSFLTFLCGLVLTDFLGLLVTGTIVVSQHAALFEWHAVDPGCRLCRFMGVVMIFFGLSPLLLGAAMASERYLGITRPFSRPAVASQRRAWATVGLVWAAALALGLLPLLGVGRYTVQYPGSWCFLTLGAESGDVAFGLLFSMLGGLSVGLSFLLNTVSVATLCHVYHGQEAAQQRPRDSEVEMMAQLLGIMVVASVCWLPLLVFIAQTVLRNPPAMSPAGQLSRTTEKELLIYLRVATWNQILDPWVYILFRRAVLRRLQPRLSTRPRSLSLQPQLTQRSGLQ

Estrogen receptor = target: T5, Estrogen receptor (Homo sapiens, UniProt P03372)
T5 sequence (P03372 whole entry): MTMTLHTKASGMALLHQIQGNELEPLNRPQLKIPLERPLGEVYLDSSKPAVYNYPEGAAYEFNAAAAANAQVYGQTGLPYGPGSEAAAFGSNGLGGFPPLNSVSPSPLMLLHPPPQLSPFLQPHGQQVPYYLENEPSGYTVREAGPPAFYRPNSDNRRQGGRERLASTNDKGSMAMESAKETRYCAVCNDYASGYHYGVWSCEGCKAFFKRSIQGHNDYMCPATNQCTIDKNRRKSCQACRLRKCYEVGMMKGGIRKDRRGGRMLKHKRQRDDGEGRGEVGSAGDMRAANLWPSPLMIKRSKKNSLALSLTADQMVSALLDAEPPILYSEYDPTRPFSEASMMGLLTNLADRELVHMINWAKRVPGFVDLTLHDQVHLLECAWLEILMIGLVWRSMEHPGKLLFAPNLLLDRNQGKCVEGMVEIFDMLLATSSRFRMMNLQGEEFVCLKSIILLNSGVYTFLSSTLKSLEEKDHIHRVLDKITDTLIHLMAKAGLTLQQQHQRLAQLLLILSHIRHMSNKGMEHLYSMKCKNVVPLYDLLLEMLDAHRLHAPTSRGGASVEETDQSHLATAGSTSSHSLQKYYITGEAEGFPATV

[4] = target: T6, Alpha-1A adrenergic receptor (Homo sapiens, UniProt P35348); format: functional, cell-based
T6 sequence (P35348 whole entry): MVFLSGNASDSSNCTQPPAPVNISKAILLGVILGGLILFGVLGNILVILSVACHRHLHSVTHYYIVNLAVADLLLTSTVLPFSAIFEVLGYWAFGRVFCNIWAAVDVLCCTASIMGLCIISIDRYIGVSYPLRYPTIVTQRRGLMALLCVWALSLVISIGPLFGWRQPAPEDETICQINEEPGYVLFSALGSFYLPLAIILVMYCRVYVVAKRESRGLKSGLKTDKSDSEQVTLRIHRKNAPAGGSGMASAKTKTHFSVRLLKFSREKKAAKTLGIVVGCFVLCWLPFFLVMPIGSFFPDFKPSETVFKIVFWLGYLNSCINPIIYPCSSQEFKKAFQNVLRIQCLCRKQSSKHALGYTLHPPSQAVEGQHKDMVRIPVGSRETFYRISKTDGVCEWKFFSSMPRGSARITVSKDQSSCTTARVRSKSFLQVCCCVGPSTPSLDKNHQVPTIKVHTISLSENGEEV

[5] = target: T2, Prostaglandin G/H synthase 1; format: functional; remark: listed apart in the source
Mu-type opioid receptor = Mu-type opioid receptor (Homo sapiens, UniProt P35372)
Mu-type opioid receptor, sequence (P35372 whole entry): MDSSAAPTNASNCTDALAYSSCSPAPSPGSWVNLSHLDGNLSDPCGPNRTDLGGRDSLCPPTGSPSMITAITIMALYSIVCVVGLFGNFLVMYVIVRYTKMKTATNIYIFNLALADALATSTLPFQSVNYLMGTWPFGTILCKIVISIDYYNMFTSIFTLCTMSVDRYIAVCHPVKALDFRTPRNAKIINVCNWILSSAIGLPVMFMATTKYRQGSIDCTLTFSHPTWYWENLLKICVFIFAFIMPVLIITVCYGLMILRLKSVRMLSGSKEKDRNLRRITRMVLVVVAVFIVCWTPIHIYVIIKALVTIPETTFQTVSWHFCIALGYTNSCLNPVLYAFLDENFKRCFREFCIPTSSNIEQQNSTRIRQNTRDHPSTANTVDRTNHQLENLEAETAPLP
Also: assay procedure not described here.

SMILES | AC50 [1] [µM] | AC50 [2] [µM] | AC50 [3] [µM] | AC50 (Acetylcholinesterase) [µM] | AC50 (Adenosine receptor A3) [µM] | AC50 (Thromboxane A2 receptor) [µM] | AC50 (Estrogen receptor) [µM] | AC50 [4] [µM] | AC50 [5] [µM] | AC50 (Mu-type opioid receptor) [µM]
CCCCOC(=O)C(=O)[C@H]1[C@H](C)C[C@H]2[C@@H]3C[C@H](F)C4=CC(=O)C=C[C@]4(C)[C@H]3[C@@H](O)C[C@@]21C [FLUOCORTIN BUTYL] | > 30 | > 30 | 27.2 | > 30 | 7.82 | > 30 | > 30 | > 30 | > 30 | > 30
CC(CNC(=O)c1ccccc1)C(=O)OCC(=O)[C@@]12OC(C)(C)O[C@@H]1C[C@H]1[C@@H]3CCC4=CC(=O)C=C[C@]4(C)[C@@]3(F)[C@@H](O)C[C@@]12C (stereo not given in full) [TRIAMCINOLONE BENETONIDE] | > 30 | > 30 | > 30 | > 30 | > 30 | > 30 | > 30 | > 30 | > 30 | > 30
Cc1cc(NS(=O)(=O)c2ccc(N)cc2)nc(C)n1 [SULFISOMIDINE] | > 30 | > 30 | > 30 | > 30 | > 30 | > 30 | > 30 | > 30 | > 30 | > 30
CC(=O)[C@@]1(O)CC[C@H]2[C@@H]3C=C(C)C4=CC(=O)CC[C@]4(C)[C@H]3CC[C@@]21C | > 30 | > 30 | > 30 | > 30 | > 30 | > 30 | > 30 | > 30 | > 30 | > 30
NNc1nnc(NN)c2ccccc12 [DIHYDRALAZINE] | > 30 | 0.344 | > 30 | > 30 | 0.197 | > 30 | > 30 | > 30 | 0.434 | 25.6
CC(C)COC(=O)OCN1C(=O)CN(CCN2CC(=O)N(COC(=O)OCC(C)C)C(=O)C2)CC1=O [SOBUZOXANE] | > 30 | > 30 | > 30 | > 30 | > 30 | > 30 | > 30 | > 30 | 29.8 | > 30
CCOc1ccccc1C(N)=O [ETHENZAMIDE] | > 30 | > 30 | > 30 | > 30 | > 30 | > 30 | > 30 | > 30 | > 30 | > 30
C=CCN1C[C@H](C(=O)N(CCCN(C)C)C(=O)NCC)C[C@@H]2c3cccc4[nH]cc(c34)C[C@H]21 [CABERGOLINE] | > 30 | > 30 | 4.64 | 11.4 | > 30 | > 30 | > 30 | 0.142 | > 30 | > 30
C[N+]1(CCCCC[N+]2(C)CCCC2)CCCC1 [PENTOLINIUM] | > 30 | > 30 | > 30 | > 30 | > 30 | > 30 | > 30 | > 30 | > 30 | > 30
CC(C)(C)N1CCC(c2ccccc2)(c2ccccc2)CC1 [BUDIPINE] | 0.301 | > 30 | > 30 | > 30 | > 30 | > 30 | > 30 | > 30 | > 30 | 12.6
CC(=O)OCC(=O)[C@@]1(O)CC[C@H]2[C@@H]3CCC4=CC(=O)C=C[C@]4(C)[C@@]3(Cl)[C@@H](Cl)C[C@@]21C [DICHLORISONE ACETATE] | > 30 | > 30 | > 30 | > 30 | > 30 | > 30 | > 30 | > 30 | > 30 | > 30
CC1=C(/C=C/C(C)=C/C=C/C(C)=C/C=C/C=C(C)/C=C/C=C(C)/C=C/C2=C(C)CCCC2(C)C)C(C)(C)CCC1 [BETA CAROTENE] | > 30 | 8.1 | > 30 | > 30 | > 30 | > 30 | > 30 | > 30 | 5.22 | > 30
CC(C)(C)NCC(O)COc1cccc2c1SCCC2 (stereo not given) [TERTATOLOL] | > 30 | > 30 | > 30 | > 30 | > 30 | > 30 | > 30 | > 30 | > 30 | > 30
CCN(CC)CCOC(=O)C(c1ccccc1)C1CCCCC1 (stereo not given) [DROFENINE] | 0.0342 | > 30 | 0.219 | > 30 | > 30 | > 30 | > 30 | > 30 | > 30 | 25.3
N=c1ccn2c(n1)O[C@H]1[C@H](O)[C@@H](CO)O[C@H]12 [ANCITABINE] | > 30 | > 30 | > 30 | > 30 | > 30 | > 30 | > 30 | > 30 | > 30 | > 30
CC[C@@H](C(N)=O)N1CCCC1=O | > 30 | > 30 | > 30 | > 30 | > 30 | > 30 | > 30 | > 30 | > 30 | > 30
OC(c1ccccc1)(c1ccccc1)C12CC[N+](CCOCc3ccccc3)(CC1)CC2 | 0.0044 | > 30 | 0.898 | > 30 | > 30 | > 30 | > 30 | > 30 | > 30 | 1.07
Clc1cc(Cl)c(OCC#CI)cc1Cl [HALOPROGIN] | > 30 | > 30 | 6.43 | > 30 | 0.946 | > 30 | > 30 | > 30 | > 30 | 12.3
